Data taken from publication PMC7699892, “Repositioned Drugs for Chagas Disease Unveiled via Structure-Based Drug Repositioning” (International Journal of Molecular Sciences, 2020).
Where two headings read alike, the source gives them in different places.

What was measured:
T. cruzi Ninoa strain = test: in vivo short-term trypanocidal activity (parasitemia) in infected CD1 mice, Ninoa strain; design: species or system Trypanosoma cruzi in CD1 mice
Method: (§1) Parasitemia was monitored at 2, 4, 6, and 8 h after administration (see Figure 2).
(§2) CD1 strain mice, 6–8 weeks old, were used to maintain Ninoa and INC-5 strains of T. cruzi. Animals were given by the University of Science and Arts of Chiapas. To maintain the strains, animals were intraperitoneally inoculated every 14 days with 1 × 10^5 blood trypomastigote, obtained from parasite-infected mice. Parasitemia was monitored every three days by the Pizzi method. For this, 5 µL of blood from the caudal vein of infected mice were deposited on a slide and evenly distributed with an 18 × 18 mm coverslip. Parasite counting was performed by observing 15 microscopic fields using a 40 × objective lens. For the in vivo short term evaluation of the trypanocidal activity of the FDA-approved drugs, six groups of six CD1 mice each with homogeneous weight and parasitemia were used.
(§3) In vivo short-term evaluation of the trypanocidal activity of the FDA-approved drugs. Six groups of six CD1 female mice were infected with blood trypomastigotes of Ninoa and INC-5 strains following the methodology previously described in Romanha et al. and in Díaz-Chiguer et al.. At day 13 post-infection, when the infected mice reached an average of 5 × 10^6 parasites/mL, a single dose of the FDA-approved drugs at 100 mg/kg body weight was orally administered. Parasitemia was monitored following the Pizzi method at 2, 4, 6, and 8 h post-treatment […] using mineral oil as a vehicle. […] Mice examination was performed as stated in the Norma Official Mexicana (NOM-062-Z00-1999), published on August 2009.

T. brucei = tested on: T. brucei; design: method as in Nenortas et al. 70; settings: ref Nenortas et al. 70; read-out: EC50, active against T. brucei in vitro; cited from earlier work
[1] = tested on: T. cruzi blood trypomastigote (INC-5 strain); test: ex vivo evaluation against blood trypomastigotes, INC-5 strain; assay type: cell-based; settings: Trypanosoma cruzi
Description: (§4) The high-priority hit drugs were subjected to experimental validation in vitro, ex vivo, and in vivo, together with a cytotoxicity assay. Ninoa and INC-5 strains of T. cruzi were used in this study. The Ninoa strain was obtained in 1986 by xenodiagnoses from an acute case of Chagas’ disease in Oaxaca, Mexico, whereas the INC-5 strain was obtained in 1997 from a chronic case of Chagas’ disease in a person in Guanajuato, Mexico.
(§5) Ex vivo evaluation of different FDA-approved drugs against Trypanosoma cruzi blood trypomastigotes. The ex vivo evaluation of the trypanocidal activity of the FDA-approved drugs was carried out according to the methodology described above. Blood from parasite infected animals was obtained from intracardiac puncture and diluted with phosphate-buffered saline (PBS), pH 7.2, until a concentration of 2 × 10^6 blood trypomastigotes/mL was obtained. From this, 195 µL of blood/well was placed in a 96-well plate and incubated at 4 °C for 24 h with 5 µL of each drug tested at different concentrations (5 µg/mL to […]). […] After incubation, live parasites were counted in a Neubauer chamber and the IC50 was calculated. Three independent experiments by triplicate were performed.

[2] = tested on: T. cruzi epimastigote (INC-5 strain); test: in vitro evaluation against epimastigotes, INC-5 strain (resazurin); assay type: cell-based; settings: Trypanosoma cruzi, 48 h at 28 °C
Description: (§6) The high-priority hit drugs were subjected to experimental validation in vitro, ex vivo, and in vivo, together with a cytotoxicity assay. Ninoa and INC-5 strains of T. cruzi were used in this study. […] In vitro evaluation of different FDA-approved drugs against Trypanosoma cruzi epimastigotes. The epimastigote stage of Ninoa and INC5 strains of T. cruzi were used to evaluated the in vitro trypanocidal activity of different FDA-approved drugs. Both strains were maintained in liver infusion tryptose (LIT) medium, supplemented with 10% fetal bovine serum (FBS) and 0.1% penicillin–streptomycin. They were preserved by transferring 1 × 10^6 parasites/mL into a new culture medium every week. […] All compounds were initially prepared at 10 mg/mL, using dimethyl sulfoxide (DMSO) as diluent. Serial dilutions were performed using complemented LIT medium until concentrations of 100 to 0.46 µg/mL of each drug were obtained. […] After the incubation period, 20 µL of 2.5 mM resazurin solution were added to each well and incubated for 3 h. All assays were carried out in triplicate.

[3] = tested on: T. cruzi blood trypomastigote (Ninoa strain); test: ex vivo evaluation against blood trypomastigotes, Ninoa strain; assay type: cell-based; settings: Trypanosoma cruzi, 24 h at 4 °C
Description: as §4, §5

[4] = tested on: T. cruzi epimastigote (Ninoa strain); test: in vitro evaluation against epimastigotes, Ninoa strain (resazurin); assay type: cell-based; settings: Trypanosoma cruzi, 48 h at 28 °C
Description: as §6

T. cruzi INC-5 strain = test: in vivo short-term trypanocidal activity (parasitemia) in infected CD1 mice, INC-5 strain; design: species or system Trypanosoma cruzi in CD1 mice
Method: as §1, §2, §3

T. cruzi epimastigotes = tested on: T. cruzi epimastigotes; design: method as in PMID 32560043; settings: cited from earlier work
T. cruzi [5] = tested on: T. cruzi; design: method as in per drug in column Reference of Table 2; settings: class of literature evidence of trypanocidal activity; ref per drug in Table 2; cited from earlier work; on Trypan. Activity: key: ? indicates unknown activity; + indicates indirect evidence of activity; ++ indicates direct evidence of activity
T. cruzi [6] = tested on: T. cruzi; design: method as in PMID 25033456; settings: read-out: EC50, inhibition of T. cruzi growth in vitro; cited from earlier work; on Trypan. Activity: key: ? indicates unknown activity; + indicates indirect evidence of activity; ++ indicates direct evidence of activity
T. cruzi DHFR = molecular target: T. cruzi DHFR; design: method as in PMID 12084467; settings: read-out: Ki, inhibitor of T. cruzi DHFR; cited from earlier work
[7] = tested on: T. cruzi reverse transcriptase; design: method as in PMID 8913446; settings: cited from earlier work

O=C(O)c1cn(C2CC2)c2cc(N3CCNCC3)c(F)cc2c1=O [Ciprofloxacin]
Parasitemia inhibition percentage over the time, 2 horas Ninoa (T. cruzi Ninoa strain; 100 mg/kg oral, 2 horas, Ninoa): 100
Parasitemia inhibition percentage over the time, 4 horas Ninoa (T. cruzi Ninoa strain; 100 mg/kg oral, 4 horas, Ninoa): 50
Parasitemia inhibition percentage over the time, 6 horas Ninoa (T. cruzi Ninoa strain; 100 mg/kg oral, 6 horas (first column so headed), Ninoa): 33.3
Parasitemia inhibition percentage over the time, 6 horas Ninoa (T. cruzi Ninoa strain; 100 mg/kg oral, 6 horas (second, last column so headed), Ninoa): 33.3
parasitemia inhibition (T. cruzi Ninoa strain; mice infected with Ninoa strain, single oral dose 100 mg/kg, eight hours after administration): 66.7%
EC50 (T. brucei): 52 µM
IC50 ([1]; ex vivo, INC-5 strain, 24 h at 4 °C, read-out: T.cruzi blood trypomastigote IC50 INC-5): 21.3 ± 0.09 µM
IC50 ([1]; rounded value in the discussion, refers to Table 3, strain not stated, read-out: IC50, inhibitor of T. cruzi trypomastigotes): 21 µM
IC50 [2]: > 400 µM
IC50 [3]: 25.7 ± 0.04 µM
IC50 [4]: > 400 µM
Parasitemia inhibition percentage over the time, 2 horas INC-5 (T. cruzi INC-5 strain; 100 mg/kg oral, 2 horas, INC-5): 100
Parasitemia inhibition percentage over the time, 4 horas INC-5 (T. cruzi INC-5 strain; 100 mg/kg oral, 4 horas, INC-5): 75
Parasitemia inhibition percentage over the time, 6 horas INC-5 (T. cruzi INC-5 strain; 100 mg/kg oral, 6 horas (first column so headed), INC-5): 62.5
Parasitemia inhibition percentage over the time, 6 horas INC-5 (T. cruzi INC-5 strain; 100 mg/kg oral, 6 horas (second, last column so headed), INC-5): 56.2
parasitemia inhibition (T. cruzi INC-5 strain; mice infected with INC-5 strain, single oral dose 100 mg/kg, eight hours after administration): 43.8%

Cc1cnc(C(=O)NCCc2ccc(S(=O)(=O)NC(=O)NC3CCCCC3)cc2)cn1 [Glipizide]
growth inhibitory activity on T. cruzi epimastigotes (T. cruzi epimastigotes): micromolar range

COc1ccc2c(c1)C(=O)N(CCc1ccc(S(=O)(=O)NC(=O)NC3CCCCC3)cc1)C(=O)C2(C)C [Gliquidone]
growth inhibitory activity on T. cruzi epimastigotes (T. cruzi epimastigotes): micromolar range

COc1ccc(Cl)cc1C(=O)NCCc1ccc(S(=O)(=O)NC(=O)NC2CCCCC2)cc1 [Glyburide]
growth inhibitory activity on T. cruzi epimastigotes (T. cruzi epimastigotes): micromolar range

Cc1cn(-c2cc(NC(=O)c3ccc(C)c(Nc4nccc(-c5cccnc5)n4)c3)cc(C(F)(F)F)c2)cn1 [Nilotinib]
growth inhibitory activity on T. cruzi epimastigotes (T. cruzi epimastigotes): micromolar range

CCc1nc(N)nc(N)c1-c1ccc(Cl)cc1 [Pyrimethamine]
Trypan. Activity (T. cruzi [5]): ++
EC50 (T. cruzi [6]): 3.8 µM
Ki (T. cruzi DHFR): 100 nM

Cc1cn([C@H]2C[C@H](N=[N+]=[N-])[C@@H](CO)O2)c(=O)[nH]c1=O [Zidovudine]
inhibition of T. cruzi reverse transcriptase [7]: does not inhibit
Trypan. Activity (T. cruzi [5]): ++
